Results reported in patent publication US10562891B2, “Quinazolinones as PARP14 inhibitors” (Ribon Therapeutics Inc., priority 2017, dated 2020).
Where a name gives a salt, the structure may show the parent alone.

Target: catalytic domain of human PARP14 (Homo sapiens (Human), UniProt Q460N5)
Assay: Enzymatic assay for inhibition of PARP14 (DELFIA, auto-modification with biotin-NAD)
Assay type: biochemical
Details: auto-modification of PARP14 by biotin-NAD, 50 nM PARP14, 3 μM biotin-NAD
Procedure, shortened: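 His-TEV-tagged PARP14 catalytic domain (50 nM) preincubated with compound 30 min at 25 °C, then auto-modified with 3 μM biotin-NAD for 3 h at 25 °C in HEPES pH 8 buffer with DTT. IC50 from 4-parameter fit, rucaparib and DMSO as controls.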

catalytic domain of human PARP14, sequence (Q460N5 1611-1801): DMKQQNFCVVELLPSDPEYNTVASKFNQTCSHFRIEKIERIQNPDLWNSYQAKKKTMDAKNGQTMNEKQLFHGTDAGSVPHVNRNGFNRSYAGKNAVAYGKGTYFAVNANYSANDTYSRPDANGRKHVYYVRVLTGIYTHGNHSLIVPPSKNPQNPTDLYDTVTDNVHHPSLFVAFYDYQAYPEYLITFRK

| Compound | IC50 |
| --- | --- |
| CS(=O)(=O)N1CCC[C@@H](Nc2cc(F)c3c(=O)[nH]c(CSC4CCOCC4)nc3c2)C1 [Example 250, (R)-5-fluoro-7-((1-(methylsulfonyl)piperidin-3-yl)amino)-2-(((tetrahydro-2H-pyran-4-yl)thio)methyl)quinazolin-4(3H)-one] | < 1000 nM |
| O=c1[nH]c(CSC2CCOCC2)nc2cc(NC3CCC3)cc(F)c12 [Example 251, 7-(Cyclobutylamino)-5-fluoro-2-(((tetrahydro-2H-pyran-4-yl)thio)methyl)quinazolin-4(3H)-one] | < 1000 nM |
| O=c1[nH]c(CSC2CCOCC2)nc2cc(NC3CCCC3)cc(Cl)c12 [Example 253, 5-Chloro-7-(cyclopentylamino)-2-(((tetrahydro-2H-pyran-4-yl)thio)methyl)quinazolin-4(3H)-one] | < 1000 nM |
| O=c1[nH]c(CSC2CCN(C3COC3)CC2)nc2cc(NC3CCCC3)cc(F)c12 [Example 255, 7-(Cyclopentylamino)-5-fluoro-2-(((1-(oxetan-3-yl)piperidin-4-yl)thio)methyl)quinazolin-4(3H)-one] | < 1000 nM |
| Cc1cc(NC2CCCC2)cc2nc(CSC3CCNCC3)[nH]c(=O)c12 [Example 257, 7-(Cyclopentylamino)-5-methyl-2-((piperidin-4-ylthio)methyl)quinazolin-4(3H)-one hydrochloride] | < 1000 nM |
| O=c1[nH]c(CSC2CCN(CC(F)(F)F)CC2)nc2cc(NC3CCCC3)cc(F)c12 [Example 263, 7-(Cyclopentylamino)-5-fluoro-2-(((1-(2,2,2-trifluoroethyl)piperidin-4-yl)thio)methyl)quinazolin-4(3H)-one] | < 1000 nM |
| CC(=O)N1CCC(SCc2nc3cc(N[C@@H]4CCCN(S(C)(=O)=O)C4)ccc3c(=O)[nH]2)CC1 [Example 268, (R)-2-(((1-acetylpiperidin-4-yl)thio)methyl)-7-((1-(methylsulfonyl)piperidin-3-yl)amino)quinazolin-4(3H)-one] | < 1000 nM |
| CS(=O)(=O)N1CCC[C@@H](Nc2cc(F)c3c(=O)[nH]c(CS[C@H]4CC[C@H](O)CC4)nc3c2)C1 [Example 269, 5-Fluoro-2-(((trans-4-hydroxycyclohexyl)thio)methyl)-7-(((R)-1-(methylsulfonyl)piperidin-3-yl)amino)quinazolin-4(3H)-one] | < 1000 nM |
| O=c1[nH]c(CSC2CCS(=O)(=O)CC2)nc2cc(NC3CCCC3)cc(F)c12 [Example 270, 7-(Cyclopentylamino)-2-(((1,1-dioxidotetrahydro-2H-thiopyran-4-yl)thio)methyl)-5-fluoroquinazolin-4(3H)-one] | < 1000 nM |
| O=c1[nH]c(CS[C@H]2CC[C@H](O)CC2)nc2cc(NCC3CC3)cc(F)c12 [Example 271, 7-((Cyclopropylmethyl)amino)-5-fluoro-2-(((trans-4-hydroxycyclohexyl)thio)methyl)quinazolin-4(3H)-one] | < 1000 nM |
| O=c1[nH]c(CSC2CCN(C3CS(=O)(=O)C3)CC2)nc2cc(NC3CCCC3)cc(F)c12 [Example 273, 7-(Cyclopentylamino)-2-(((1-(1,1-dioxidothietan-3-yl)piperidin-4-yl)thio)methyl)-5-fluoroquinazolin-4(3H)-one] | < 1000 nM |
| O=c1[nH]c(CSC2CCN(C3COC3)CC2)nc2cc(NCC3CC3)cc(F)c12 [Example 274, 7-((Cyclopropylmethyl)amino)-5-fluoro-2-(((1-(oxetan-3-yl)piperidin-4-yl)thio)methyl)quinazolin-4(3H)-one] | < 1000 nM |
| CS(=O)(=O)CCN1CCC(SCc2nc3cc(NC4CCCC4)cc(F)c3c(=O)[nH]2)CC1 [Example 276, 7-(Cyclopentylamino)-5-fluoro-2-(((1-(2-(methylsulfonyl)ethyl)piperidin-4-yl)thio)methyl)quinazolin-4(3H)-one] | < 1000 nM |

Other lines, results leading:

| IC50 | Compound |
| --- | --- |
| < 1000 nM | O=c1[nH]c(CSC2CCOCC2)nc2cc(NCCC3CCCC3)ccc12 [Example 252, 7-((2-Cyclopentylethyl)amino)-2-(((tetrahydro-2H-pyran-4-yl)thio)methyl)quinazolin-4(3H)-one] |
| < 1000 nM | O=c1[nH]c(CSC2CCN(CC(F)(F)F)CC2)nc2cc(NC3CCCC3)ccc12 [Example 254, 7-(Cyclopentylamino)-2-(((1-(2,2,2-trifluoroethyl)piperidin-4-yl)thio)methyl)quinazolin-4(3H)-one] |
| < 1000 nM | O=c1[nH]c(CSC2CCOCC2)nc2cc(NCCC3CCOCC3)ccc12 [Example 256, 7-((2-(Tetrahydro-2H-pyran-4-yl)ethyl)amino)-2-(((tetrahydro-2H-pyran-4-yl)thio)methyl)quinazolin-4(3H)-one] |
| < 1000 nM | O=c1[nH]c(CSC2CCN(CC(F)F)CC2)nc2cc(NC3CCCC3)ccc12 [Example 258, 7-(Cyclopentylamino)-2-(((1-(2,2-difluoroethyl)piperidin-4-yl)thio)methyl)quinazolin-4(3H)-one] |
| < 1000 nM | O=c1[nH]c(CSC2CCN(CCC(F)(F)F)CC2)nc2cc(NC3CCCC3)ccc12 [Example 259, 7-(Cyclopentylamino)-2-(((1-(3,3,3-trifluoropropyl)piperidin-4-yl)thio)methyl)quinazolin-4(3H)-one] |
| < 1000 nM | O=c1[nH]c(CSC2CCNCC2)nc2cc(NCC3CCC3)cc(F)c12 [Example 261, 7-((Cyclobutylmethyl)amino)-5-fluoro-2-((piperidin-4-ylthio)methyl)quinazolin-4(3H)-one] |
| < 1000 nM | O=c1[nH]c(CSC2CCNCC2)nc2cc(NCC3CC3(F)F)cc(F)c12 (centres unmarked) [Example 262, 7-(((2,2-Difluorocyclopropyl)methyl)amino)-5-fluoro-2-((piperidin-4-ylthio)methyl)quinazolin-4(3H)-one] |
| < 1000 nM | CC(F)(F)CN1CCC(SCc2nc3cc(NC4CCCC4)ccc3c(=O)[nH]2)CC1 [Example 264, 7-(Cyclopentylamino)-2-(((1-(2,2-difluoropropyl)piperidin-4-yl)thio)methyl)quinazolin-4(3H)-one] |
| < 1000 nM | O=c1[nH]c(CSC2CCNCC2)nc2cc(NCC3CC3)cc(F)c12 [Example 265, 7-((Cyclopropylmethyl)amino)-5-fluoro-2-((piperidin-4-ylthio)methyl)quinazolin-4(3H)-one] |
| < 1000 nM | O=c1[nH]c(CSC2CCNCC2)nc2cc(NC3CCC(F)(F)C3)cc(F)c12 (centres unmarked) [Example 266, 7-((3,3-Difluorocyclopentyl)amino)-5-fluoro-2-((piperidin-4-ylthio)methyl)quinazolin-4(3H)-one] |
| < 1000 nM | CS(=O)(=O)N1CCC[C@@H](Nc2ccc3c(=O)[nH]c(CS[C@H]4CC[C@H](O)CC4)nc3c2)C1 [Example 267, 2-(((Trans-4-hydroxycyclohexyl)thio)methyl)-7-(((R)-1-(methylsulfonyl)piperidin-3-yl)amino)quinazolin-4(3H)-one] |
| 1000 to 10000 nM | O=c1[nH]c(CSC2CCNCC2)nc2cc(NCC3CCOCC3)cc(F)c12 [Example 272, 5-Fluoro-2-((piperidin-4-ylthio)methyl)-7-(((tetrahydro-2H-pyran-4-yl)methyl)amino)quinazolin-4(3H)-one] |
| < 1000 nM | O=c1[nH]c(CSC2CCNCC2)nc2cc(OCC3CC3)ccc12 [Example 275, 7-(Cyclopropylmethoxy)-2-((piperidin-4-ylthio)methyl)quinazolin-4(3H)-one] |
